According to the supplement of paper PMC10307832:

Tests used:
Test in all cases: relative viability (nuclei count vs DMSO), 5 days (fraction); higher = more cells survive
GSK-J4 + Tozasertib = compound: CCOC(=O)CCNc1cc(N2CCc3ccccc3CC2)nc(-c2ccccn2)n1 [GSK-J4] + Cc1cc(Nc2cc(N3CCN(C)CC3)nc(Sc3ccc(NC(=O)C4CC4)cc3)n2)n[nH]1 [Tozasertib] (partner 0.1 µM)
Procedure, shortened: (§1)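 A single step with final 0.05% Triton X-100, 1% formaldehyde and 1 ug/ml Hoechst fixed the cells and stained nuclei 5 days after treatment. Lung cancer cell lines in 1536-well plates had been treated by pin tool the day after seeding with one drug alone or a fixed anchor-drug dose plus five library-drug doses (not always all listed) in √10 steps, and nuclei were counted on 4× images. Relative viability is the ratio of nuclei in treated wells to nuclei in vehicle wells, taken as the median of duplicate plates.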

AZ3146 + Navitoclax = compound: CN1CCC(CC1)OC2=CC(=C(C=C2)NC3=NC=C4C(=N3)N(C(=O)N4C)C5CCCC5)OC [AZ3146] + CC1(C)CCC(c2ccc(Cl)cc2)=C(CN2CCN(c3ccc(C(=O)NS(=O)(=O)c4ccc(N[C@H](CCN5CCOCC5)CSc5ccccc5)c(S(=O)(=O)C(F)(F)F)c4)cc3)CC2)C1 [Navitoclax] (partner 0.5 µM)
Procedure, shortened: as §1

AZ3146 + Crizotinib = compound: CN1CCC(CC1)OC2=CC(=C(C=C2)NC3=NC=C4C(=N3)N(C(=O)N4C)C5CCCC5)OC [AZ3146] + C[C@@H](Oc1cc(-c2cnn(C3CCNCC3)c2)cnc1N)c1c(Cl)ccc(F)c1Cl [Crizotinib] (partner 1 µM)
Procedure, shortened: as §1

AZ3146 + Pemetrexed = compound: CN1CCC(CC1)OC2=CC(=C(C=C2)NC3=NC=C4C(=N3)N(C(=O)N4C)C5CCCC5)OC [AZ3146] + Nc1nc2[nH]cc(CCc3ccc(C(=O)N[C@@H](CCC(=O)O)C(=O)O)cc3)c2c(=O)[nH]1 [Pemetrexed] (partner 0.2 µM)
Procedure, shortened: as §1

Cell Line | relative viability (GSK-J4 + Tozasertib; first compound 0.5 µM) | relative viability (GSK-J4 + Tozasertib; first compound 1.581 µM) | relative viability (GSK-J4 + Tozasertib; first compound 5 µM) | relative viability (GSK-J4 + Tozasertib; first compound 15.81 µM) | relative viability (GSK-J4 + Tozasertib; first compound 50 µM) | relative viability (AZ3146 + Navitoclax; first compound 0.08 µM) | relative viability (AZ3146 + Navitoclax; first compound 0.253 µM) | relative viability (AZ3146 + Navitoclax; first compound 0.8 µM) | relative viability (AZ3146 + Navitoclax; first compound 2.53 µM) | relative viability (AZ3146 + Navitoclax; first compound 8 µM) | relative viability (AZ3146 + Crizotinib; first compound 0.08 µM) | relative viability (AZ3146 + Crizotinib; first compound 0.253 µM) | relative viability (AZ3146 + Crizotinib; first compound 0.8 µM) | relative viability (AZ3146 + Crizotinib; first compound 2.53 µM) | relative viability (AZ3146 + Crizotinib; first compound 8 µM) | relative viability (AZ3146 + Pemetrexed; first compound 0.08 µM) | relative viability (AZ3146 + Pemetrexed; first compound 0.253 µM) | relative viability (AZ3146 + Pemetrexed; first compound 0.8 µM) | relative viability (AZ3146 + Pemetrexed; first compound 2.53 µM) | relative viability (AZ3146 + Pemetrexed; first compound 8 µM)
NCI-H2228 | 0.221 | 0.237 | 0.246 | 0.247 | 0.212 | 0.901 | 0.8 | 0.961 | 0.935 | 0.845 | 0.537 | 0.503 | 0.423 | 0.396 | 0.369 | 0.297 | 0.325 | 0.333 | 0.298 | 0.37
LK-2 | 0.165 | – | 0.167 | 0.164 | 0.147 | 0.686 | 0.889 | 0.994 | 0.911 | 0.929 | 0.229 | – | – | 0.228 | 0.219 | – | – | 0.168 | 0.318 | 0.307
NCI-H1650 | 0.369 | 0.393 | 0.333 | 0.311 | 0.301 | 1.21 | 1.34 | 1.26 | 1.38 | 1.19 | 0.933 | 0.95 | 0.84 | 0.95 | 0.489 | 0.323 | 0.324 | 0.366 | 0.376 | 0.386
Calu-6 | – | – | – | – | – | 0.781 | 0.952 | 0.763 | 0.665 | 0.278 | 0.715 | 0.763 | 0.701 | 0.465 | 0.256 | – | – | – | – | –
ABC-1 | 0.188 | 0.166 | 0.171 | 0.166 | 0.188 | – | – | – | – | – | 0.852 | 1.38 | 1.03 | 1.07 | 0.452 | – | – | – | – | –
SW 900 | 0.478 | 0.463 | 0.696 | 0.408 | 0.333 | – | – | – | – | – | – | – | – | – | – | 0.459 | – | 0.445 | 0.492 | 0.429
PC-3 [JPC-3] | 0.838 | 0.824 | 0.883 | 0.815 | 0.702 | 0.679 | 0.836 | 0.802 | 0.797 | 0.85 | 0.912 | 0.983 | 0.974 | 1.03 | 0.984 | 0.999 | – | 1.19 | 1.02 | 0.942
NCI-H1648 | 0.44 | – | 0.978 | 0.324 | 0.307 | – | – | – | – | – | – | – | – | – | – | – | – | 1.02 | 0.801 | 0.62
A549 | – | – | – | – | – | 1.12 | 1.29 | 1.23 | 0.467 | 0.0543 | 0.655 | 0.777 | 0.453 | 0.0847 | 0.0598 | – | – | – | – | –
A-427 | 0.233 | – | 0.22 | 0.18 | 0.157 | 0.96 | 0.967 | 0.957 | 0.98 | 0.943 | 0.877 | 0.927 | 0.869 | 0.804 | 0.444 | 0.898 | 0.923 | 0.976 | 0.926 | 0.766
